Test results taken from PubChem BioAssay AID2305 (GlaxoSmithKline (GSK), 2010).
pIC50: −log10 of the molar value.

tested on: P. falciparum 3D7 growth, pLDH absorbance; assay: P. falciparum 3D7 growth inhibition, dose response, strain 3D7 (AID 2305)

First: Cc1cc(N[C@@H](CC(C)C)C(=O)NCc2cccs2)nc(NCCc2ccc(F)cc2)n1
Second: COc1ccc(Nc2nccc(NCCNC(=O)Nc3ccccc3F)n2)cc1
The pIC50 of the first is 0.22 log units higher: 6.10 for the first, 5.88 for the second. The first is the more potent here.

Compared with O=C(c1ccc(-c2ccc(Cl)cc2)o1)N1CCc2cc3nccc(N4CCN5CCC[C@H]5C4)c3cc21, O=C(Nc1ccc2c(c1)CCN(C1CCC1)CC2)c1ccc(-n2ccnc2)cn1 is 0.34 log units lower in pIC50: 6.77 for the first, 6.43 for the second.

CCCN(Cc1nnc(-c2cccs2)o1)C(=O)C1COc2ccccc2O1 (stereo not given) and Cc1cc(NC(=O)c2cccs2)ccc1OC1CCN(Cc2ccccc2)CC1 are within 0.2 log units of each other in pIC50: 6.07 for the first, 6.06 for the second.

First: c1ccc2nc(NCCCCCCCCNc3ccc4ccccc4n3)ccc2c1
Second: Clc1ccc(CNCCCCCCNCc2ccc(Cl)cc2)cc1
The pIC50 of the first is 0.50 log units higher: 6.57 for the first, 6.07 for the second. The first is the more potent here.

Going from CSc1nccc(-c2ccc3ccnc(N)c3c2)n1 to Nc1nccc2ccc(-c3ccc4ncccc4c3)cc12, the pIC50 rises from 6.04 to 6.96 (0.92 log units).

Going from CC(=O)N(C)C1CCN(Cc2ccc(-c3ccc(-c4nc5ccc(F)cc5[nH]4)s3)cc2)C1 (stereo not given) to Fc1ccc2nc(-c3ccc(-c4ccc(CN5CCN(c6ccncc6)CC5)cc4)cc3)[nH]c2c1, the pIC50 rises from 6.01 to 6.60 (0.59 log units). The second is the more potent here.

COc1ccc(-c2nc3cccnc3n2CC(=O)Nc2c(C)cc(C)cc2C)c(OC)c1 and COc1ccccc1C(=O)Nc1ccc(Nc2nc(C)cc(N(C)C)n2)cc1 are within 0.2 log units of each other in pIC50: 6.03 for the first, 6.10 for the second.

O=C(Nc1ccc(-c2ccccc2)s1)N[C@H]1CCN(Cc2ccc(OCCCN3CCCCC3)cc2)C1 and COc1ccc(CN2CCCN(Cc3cccc(NC(=O)c4ccc5ccccc5c4)c3)CC2)cc1 are within 0.2 log units of each other in pIC50: 6.13 for the first, 6.00 for the second.

First: O=C(Nc1cc(F)cc(F)c1)N1CCOC(CCN2CCC3(CCc4ccccc43)CC2)(c2ccc(Cl)c(Cl)c2)C1 (stereo not given)
Second: N#Cc1ccc(C(=O)Nc2ccc(Cl)c(N3CCN(CCc4ccccc4)CC3)c2)cc1
The pIC50 of the first is 0.52 log units higher: 6.55 for the first, 6.03 for the second. The first is the more potent here.

Compared with NC(=NCCCCCCCCN=C(N)Nc1ccc(Cl)cc1)Nc1ccc(Cl)cc1, CCCCCCCCNCC(O)c1cc(-c2ccc(Cl)cc2)nc2cc(C)ccc12 (stereo not given) is 0.87 log units higher in pIC50: 6.23 for the first, 7.10 for the second.

Cc1ccnc(NC(c2cccc(OCc3ccccc3)c2)c2ccc3cccnc3c2O)c1 (stereo not given) and O=C(Nc1cccc(-c2cccc(-c3nc4ccccc4[nH]3)c2)c1)c1cccnc1 are within 0.2 log units of each other in pIC50: 6.07 for the first, 6.19 for the second.

Going from Cc1[nH]c(C)c(-c2ccc(C(=O)c3ccccc3)cc2)c(=O)c1Br to Cc1[nH]c(C)c(-c2ccc(CCc3ccc(F)cc3F)cc2)c(=O)c1Cl, the pIC50 rises from 6.11 to 7.70 (1.59 log units).

N#Cc1cccc(C(=O)Nc2ccc(-c3cccc(CN4CCCC4)c3)cc2)c1 and Cc1c(Cn2ncc(N3CCC(N)CC3)c(Cl)c2=O)cccc1NC(=O)Nc1ccc(-c2ccccc2)cc1 are the same in pIC50: 6.15 for the first, 6.15 for the second.

Cc1cc(CNCCCCCCNCc2cccc([N+](=O)[O-])c2)ccc1O and COc1cccc(NC(=O)c2ccc(NCCCN3CC(C)CC(C)C3)c([N+](=O)[O-])c2)c1 (stereo not given) are the same in pIC50: 6.14 for the first, 6.14 for the second.

OC(CN(Cc1ccccc1)Cc1ccccc1)Cn1c2ccc(Cl)cc2c2cc(Cl)ccc21 (stereo not given) and O=C(N[C@@H](Cc1ccccc1)C(=O)NCc1cccc(C(F)(F)F)c1)c1ccc(O)c(-c2ccc(Cl)c(Cl)c2)c1 are within 0.2 log units of each other in pIC50: 6.00 for the first, 6.15 for the second.

Compared with CC(Oc1ccc(Cl)cc1)C(=O)Nc1cc(C(F)(F)F)ccc1N1CCOCC1 (stereo not given), Clc1ccc(Sc2cncnc2N2CCOCC2)cc1 is 1.12 log units higher in pIC50: 6.28 for the first, 7.40 for the second.

Compared with CN(c1ccc(NC(=O)Nc2cc(C(F)(F)F)ccc2F)cc1)c1ccnc(NCCN2CCCC2)n1, CN1CCCC1CCNc1ncc2c(-c3ccc(NC(=O)Nc4cc(C(F)(F)F)ccc4F)c(F)c3)nn(C)c2n1 (stereo not given) is 0.60 log units higher in pIC50: 5.94 for the first, 6.54 for the second.

First: O=c1cc(NC[C@H]2CCC[C@@H]2NCc2cc(Br)cc(Br)c2)[nH]c2ccccc12
Second: COc1cc(C(F)(F)F)nc2c(CNCCCNc3cc(=O)c4ccccc4[nH]3)scc12
The pIC50 of the first is 0.24 log units higher: 6.17 for the first, 5.93 for the second. The first is the more potent here.

First: CC(C)COc1ccc(Cl)cc1Cc1ccc(-c2nc3ccc(CCN(C)C)cc3[nH]2)o1
Second: NCc1ccc(CNCc2ccc(-c3ccc(-c4nc5ccc(C(F)(F)F)cc5[nH]4)s3)cc2)cc1
The pIC50 of the first is 0.79 log units lower: 6.01 for the first, 6.80 for the second. The second is the more potent here.

First: COC(=O)c1cccc(NC(=O)NC2CCN(c3ccnc(Nc4ccc(OC)cc4)n3)C2)c1 (stereo not given)
Second: CS(=O)(=O)CCNCc1cccc(-c2ccc3c(Nc4ccc(Oc5cccnc5)cc4)ccnc3c2)c1
The pIC50 of the first is 0.52 log units lower: 6.33 for the first, 6.85 for the second. The second is the more potent here.

First: O=C(Cc1ccccc1)NC(CCN1CCC(N(C2CC2)S(=O)(=O)c2cccc(C(F)(F)F)c2)CC1)c1ccc(Cl)c(Cl)c1 (stereo not given)
Second: O=C(C=Cc1ccc(Cl)c(Cl)c1)NCCCCCN1CCC(CCCNS(=O)(=O)c2cccc(C(F)(F)F)c2)CC1
The pIC50 of the first is 0.42 log units lower: 5.90 for the first, 6.32 for the second.

Going from O=C(Nc1cccc(-c2ccc(-c3nc4ccccc4[nH]3)cc2)c1)Nc1ccc(F)c(F)c1F to O=C(Nc1cccc(-c2cccc(-c3nc4ccc(F)cc4[nH]3)c2)c1)Nc1ccc(F)c(F)c1F, the pIC50 rises from 6.62 to 7.05 (0.43 log units).

CNC(=O)c1cc(S(=O)(=O)N2CCN(c3ccccn3)CC2)cs1 and CC(C)c1sc(N2CCN(C)CC2)nc1C(=O)NCCc1ccc(Cl)c(Cl)c1 are within 0.2 log units of each other in pIC50: 6.17 for the first, 5.98 for the second.

CC(=O)c1ccc2c(c1)CCN(CCC1CCC(NC(=O)c3cc4ccccc4[nH]3)CC1)CC2 (stereo not given) and Cc1cc(C)c(NC(=O)N2CCCN(CCCCCNC(=O)/C=C/c3ccc(Cl)c(Cl)c3)CC2)c(C)c1 are the same in pIC50: 6.01 for the first, 6.01 for the second.

Nc1ncc(OC2CCCCC2)c(N)n1 and CC(C)n1ncc2c(C(=O)Nc3ccc(C#N)c(Cl)c3)cc(C3CC3)nc21 are within 0.2 log units of each other in pIC50: 5.97 for the first, 6.02 for the second.
